Assay results as given in patent publication EP0104857A1, “Deoxyuridine compounds, methods for preparing them and their use in medicine” (BEECHAM GROUP PLC, priority 1982, dated 1984).
Where two headings read alike, the source gives them in different places.

What was measured:
[1] = system: Herpes simplex type 1 virus (HFEM strain); assay: Plaque reduction assay in virus-infected Vero cells; assay type: cell-based; details: Human alphaherpesvirus 1, 96 h, concentration causing 50% reduction in number of virus plaques, HSV-1 HFEM strain, 4 days incubation at 37 C, read-out: PDD50 (the source's name)
Protocol: (§1) Vero (African Green Monkey Kidney) cells were grown to confluence in 24 well multidishes, each well being 1.6 cm in diameter. The cells were infected with Herpes simplex type 1 virus (HFEM strain) and overlaid with 0.5ml of 0.9% agarose (w/v) in maintenance medium. Test compounds prepared in maintenance medium in concentrations ranging from 100 to 0.03 pg/ml in half-log dilution steps, were added in 0.5ml volume. The virus infected cultures were then incubated at 37 °C for 4 days before fixing in 4% formaldehyde solution and staining with carbolfuchsin.

[2] = Cytotoxicity in the plaque reduction assay cultures; assay type: cell-based, African Green Monkey; details: monkey; minimum concentration of test compound which caused cytotoxicity; Vero cells, 4 days; highest concentration tested 100; read-out: MTD
Protocol: as §1

Compound	IC50 ([1]; molar units)	IC50 [1]	MCC at 96 h [2]
O=c1[nH]c(=O)n([C@H]2C[C@H](OC3CCCO3)[C@@H](COC3CCCO3)O2)cc1/C=C/Br (stereo partly drawn) [Example 1, 5-(E-2-Bromovinyl)-2'-deoxy-3',5'-bis-O-(tetrahydrofuran-2-yl)uridine]	9 µM	4.3 µg/mL	> 100 µg/mL
O=c1[nH]c(=O)n([C@H]2C[C@H](OC3CCCO3)[C@@H](CO)O2)cc1/C=C/Br (stereo partly drawn) [Example 2, 5-(E-2-bromovinyl)-2'-deoxy-3'-O-(tetrahydrofuran-2-yl)uridine]	2.8 µM	1.1 µg/mL	> 100 µg/mL
O=c1[nH]c(=O)n([C@H]2C[C@H](OC3CCCCO3)[C@@H](COC3CCCCO3)O2)cc1/C=C/Br (stereo partly drawn) [Example 4, 5-(E-2-Bromovinyl)-2'-deoxy-3',5'-bis-O-(tetrahdropyropyran-2-yl)uridine]	34 µM	17 µg/mL	100 µg/mL
O=c1[nH]c(=O)n([C@H]2C[C@H](OC3CCCCO3)[C@@H](CO)O2)cc1/C=C/Br (stereo partly drawn) [Example 5, 5-(E-2-bromovinyl)-2'-deoxy-3'-O-(tetrahydropyran-2-yl)uridine]	4.3 µM	1.8 µg/mL	> 100 µg/mL
O=c1[nH]c(=O)n([C@H]2C[C@H](O)[C@@H](COC3CCCCO3)O2)cc1/C=C/Br (stereo partly drawn) [Example 6, 5-(E-2-bromo-vinyl) -2'-deoxy-5'-O-(tetrahydropyran-2-yl) uridine]	170 µM	69 µg/mL	> 100 µg/mL
CCOC(CC)OC[C@H]1O[C@@H](n2cc(/C=C/Br)c(=O)[nH]c2=O)C[C@@H]1O (stereo partly drawn) [Example 8, 5-(E-2-bromovinyl)-2'-deoxy-5'-O-(1-ethoxypropyl)uridine]	15 µM	6.4 µg/mL	> 100 µg/mL
O=c1[nH]c(=O)n([C@H]2C[C@H](OCOCc3ccccc3)[C@@H](COCOCc3ccccc3)O2)cc1/C=C/Br [Example 10, 3',5'-Bis-O-benzoxmethl-5-(E-2-bromovinyl)-2'-deoxuridine]	126 µM	72 µg/mL	> 100 µg/mL
O=c1[nH]c(=O)n([C@H]2C[C@H](O)[C@@H](COCOCc3ccccc3)O2)cc1/C=C/Br [Example 12, 5'-O-benzoxymethyl-5-(E-2-bromovinyl)-2'-deoxyuridine]	15 µM	6.6 µg/mL	> 100 µg/mL
CCOC(CCl)OC[C@H]1O[C@@H](n2cc(/C=C/Br)c(=O)[nH]c2=O)C[C@@H]1OC(CCl)OCC (stereo partly drawn) [Example 19, 5-(E-2-Bromovinyl)-3',5'-bis-0-(2-chloro-1-ethoxyethyl)-2'-deoxyuridine]	17 µM	9.1 µg/mL	> 100 µg/mL
CCOC(CCl)O[C@H]1C[C@H](n2cc(/C=C/Br)c(=O)[nH]c2=O)O[C@@H]1CO (stereo partly drawn) [Example 20, 5-(E-2-bromovinyl)-3'-O-(2-chloro-1-ethoxyethyl)-2^1-deoxyuridine]	7.5 µM	3.3 µg/mL	> 100 µg/mL
CCOC(CCl)OC[C@H]1O[C@@H](n2cc(/C=C/Br)c(=O)[nH]c2=O)C[C@@H]1O (stereo partly drawn) [Example 21, 5-(E-2-bromovinyl)-5'-0-(2-chloro-1-ethoxyethyl)-2'-deoxyuridine]	43 µM	19 µg/mL	> 100 µg/mL
